Measured values taken from patent US20190233884A1 (University of Southern California, priority 2016, published 2019).

Tested on: patients with refractory metastatic colorectal cancer (mCRC)
Assay: PFS, OS and disease control in the training (evaluation) cohort of refractory mCRC patients receiving TAS-102 (n=52, Japan), by baseline characteristics, SNP genotype and toxicity
Format: in vivo, human
Experimental: All patients underwent the treatment in salvage-line setting. […]
(§1) Genomic DNA was extracted from peripheral whole blood in patients of all cohorts using the QIAmp Kit (Qiagen, Valencia, Calif., USA) according to the manufacturer's protocol (www.qiagen.com). The candidate SNPs were genotyped using PCR-based direct DNA sequence analysis by ABI 3100A Capillary Genetic Analyzer and Sequencing Scanner v1.0 (Applied Biosystems). Amplification of extracted DNA was carried out using both forward and reverse primers for each gene polymorphism as shown in Table 1. […] The investigators analyzing SNPs were blinded to the clinical data of the study patients.
The primary endpoint in this study was progression-free survival (PFS), and the secondary endpoints were overall survival (OS) and disease control rate (DCR). PFS was calculated from the date of starting treatment to the first observation of disease progression or death from any cause. If a patient had no disease progression or death, PFS was censored at the date of last follow up. OS was calculated from the date of starting treatment until the date of death from any cause or the date of the last follow-up, at which point OS was censored. The disease control rate (DCR) was defined as the proportion of patients who achieved a stable disease (SD) or […] according to RECISTv1.1. Chi-square test was used to examine the difference in baseline patient characteristics among the three cohorts. Allelic distribution of all SNPs by ethnicity for deviation from Hardy-Weinberg equilibrium and the allelic frequencies of SNPs were tested using the Chi-square tests with one degree of freedom. The associations between candidate SNPs and disease control, and toxicities were examined using contingency tables and Fisher's exact test. The associations of SNPs with PFS and OS were analysed using Kaplan-Meier curves and the log-rank test. Because the true mode of inheritance of candidate SNPs was not established yet, a codominant or dominant genetic model if appropriate was considered.
All patients underwent the treatment in salvage-line setting. […] In all patients, adverse events were graded according to the Common Terminology Criteria for Adverse Events, version 4.0. […]
as §1, with “tested” for “genotyped”, “Biosystems).” for “Biosystems). Amplification of extracted DNA was carried out using both forward and reverse primers for each gene polymorphism as shown in Table 1.”, “data.” for “data of the study patients.”
The primary endpoint in this study was progression-free survival (PFS), and the secondary endpoints were overall survival (OS) and disease control rate (DCR).

[1] = training cohort, OCT2 rs316019 C/C
[2] = training cohort, hENT1 + OCT2/MATE1 classification: Fair
[3] = training cohort, hENT1rs750370_19 Excellent
[4] = training cohort, hENT1rs750370_19 Faire
[5] = training cohort, hENT1rs750370_19 Faire vs Poor
[6] = training cohort, hENT1rs750370_19 Good
[7] = training cohort, hENT1rs750370_19 Good and Excellent combined
[8] = training cohort, hENT1rs750370_19 Good and Excellent combined vs Poor
[9] = training cohort, hENT1rs750370_19 Poor
[10] = training cohort, hENT1 rs760370, multivariate adjusted for liver metastases and adjuvant history
[11] = training cohort, hENT1 rs760370 A/A
[12] = training cohort, hENT1 rs760370 A/G
[13] = training cohort, hENT1 rs760370 A/G and G/G combined
[14] = training cohort, hENT1 rs760370 A/G and G/G combined vs A/A
[15] = training cohort, hENT1 rs760370 G/G
[16] = training cohort, hENT1 rs760370 any G allele
[17] = training cohort, hENT1 rs760370 any G vs A/A, univariate
[18] = training cohort, hENT1 rs9394992 C/C
[19] = training cohort, hENT1 rs9394992 C/T
[20] = training cohort, hENT1 rs9394992 C/T and T/T combined
[21] = training cohort, hENT1 rs9394992 C/T and T/T combined vs C/C
[22] = training cohort, hENT1 rs9394992 T/T
[23] = training cohort, hENT1 rs9394992 any T allele
[24] = training cohort, hENT1 rs9394992 any T vs C/C, univariate
[25] = training/evaluation cohort, grade 3≤ neutropenia vs less than grade 3, univariate
[26] = training/evaluation cohort, neutropenia less than grade 3 (n=32)
[27] = training/evaluation cohort, patients with grade 3≤ neutropenia (n=20)
[28] = whole training (evaluation) cohort

For Trifluridine/tipiracil [TAS-102], the “Progression-free Survival HR (95% CI) univariate” value (training cohort, OCT2 rs316019 C/A and A/A combined vs C/C) was 0.74 (0.35, 1.52), the “Disease Control Rate PD” value [1] was 24 (73%) and the “Disease Control Rate SD” value [1] was 9 (27%). The “Overall Survival Median, months (95% CI)” value [1] was 8.1 (5.7, 12.4) months, the “Progression-free Survival Median, months (95% CI)” value [1] was 2.5 (2.1, 3.4) months and the “Progression-free Survival HR (95% CI) multivariate” value (training cohort, adjusted for liver metastasis and adjuvant history, CNT1 rs2290272 A/A genotype) was 1.01 (0.38, 2.68). The “Progression-free Survival HR (95% CI) multivariate” value (training cohort, adjusted for liver metastasis and adjuvant history, CNT1 rs2290272 G/A genotype) was 0.64 (0.29, 1.39), the “Progression-free Survival HR (95% CI) multivariate” value (training cohort, adjusted for liver metastasis and adjuvant history, CNT1 rs2290272 any A allele) was 0.71 (0.33, 1.50) and the “Progression-free Survival HR (95% CI) multivariate” value (training cohort, adjusted for liver metastasis and adjuvant history, MATE2 rs16960360 A/C or C/C genotype) was 1.07 (0.55, 2.07). The “Progression-free Survival HR (95% CI) multivariate” value (training cohort, adjusted for liver metastasis and adjuvant history, OCT2 rs316000 A/G or G/G genotype) was 1.11 (0.48, 2.56), the “Progression-free Survival HR (95% CI) multivariate” value (training cohort, adjusted for liver metastasis and adjuvant history, TK1 rs1065769 C/T or T/T genotype) was 1.13 (0.58, 2.18) and the OS (training cohort, grade 2< neutropenia (so in the source)) was 8.3 months. The “HR for OS” value (training cohort, grade 2< vs grade 2> neutropenia) was 0.41, the OS (training cohort, grade 2> neutropenia (so in the source)) was 4.4 months and the OS [2] was 7.2. It also gave a PFS [2] of 2.1 months, a PFS (training cohort, hENT1 + OCT2/MATE1 classification: Good or Excellent) of 3.5 months and an OS (training cohort, hENT1 + OCT2/MATE1 classification: Good or Excellent (third value as printed)) of 3.4. The OS (training cohort, hENT1 + OCT2/MATE1 classification: Poor (first value)) was 8.7, the “Disease Control Rate PD” value [3] was 10 (50%) and the “Disease Control Rate SD” value [3] was 10 (50%). The “Overall Survival Median, months (95% CI)” value [4] was 7.2 (2.7, 14.8) months, the “Progression-free Survival Median, months (95% CI)” value [4] was 2.1 (1.6, 4.1) months and the “Overall Survival HR (95% CI) multivariate” value [5] was 0.37 (0.11, 1.23). The “Overall Survival HR (95% CI) univariate” value [5] was 0.37 (0.12, 1.16), the “Progression-free Survival HR (95% CI) multivariate” value [5] was 0.48 (0.20, 1.16) and the “Progression-free Survival HR (95% CI) univariate” value [5] was 0.42 (0.17, 1.03). For the same substance, the “Disease Control Rate PD” value [6] was 2 (67%), the “Disease Control Rate SD” value [6] was 1 (33%) and the “Overall Survival Median, months (95% CI)” value [7] was 8.7 (8.1, 15.6) months. For the same substance, the “Progression-free Survival Median, months (95% CI)” value [7] was 3.5 (2.5, 4.6) months, the “Overall Survival HR (95% CI) multivariate” value [8] was 0.08 (0.02, 0.41) and the “Overall Survival HR (95% CI) univariate” value [8] was 0.14 (0.04, 0.48). For the same substance, the “Progression-free Survival HR (95% CI) multivariate” value [8] was 0.28 (0.11, 0.55), the “Progression-free Survival HR (95% CI) univariate” value [8] was 0.26 (0.11, 0.59) and the “Disease Control Rate PD” value [9] was 9 (100%). The “Disease Control Rate SD” value [9] was 0, the “Overall Survival Median, months (95% CI)” value [9] was 3.4 (2.7, 6.5) months and the “Progression-free Survival Median, months (95% CI)” value [9] was 1.6 (0.9, 2.9) months. For the same substance, the PFS (training cohort, hENT1 rs760370 + OCT2 rs316019/MATE1 rs2289669 classification: Poor) was 1.6 months, the “HR for OS” value [10] was 0.27 and the “HR for PFS” value [10] was 0.44. The “Disease Control Rate PD” value [11] was 19 (83%), the “Disease Control Rate SD” value [11] was 4 (17%) and the OS [11] was 5.3 months. The “Overall Survival Median, months (95% CI)” value [11] was 5.3 (3.1, 12.4) months, the PFS [11] was 2.1 months and the “Progression-free Survival Median, months (95% CI)” value [11] was 2.1 (1.6, 2.9) months. The “Disease Control Rate PD” value [12] was 11 (55%), the “Disease Control Rate SD” value [12] was 9 (45%) and the “Overall Survival Median, months (95% CI)” value [13] was 8.7 (8.1, 15.6+) months. The “Progression-free Survival Median, months (95% CI)” value [13] was 3.5 (2.5, 4.6) months, the “Overall Survival HR (95% CI) multivariate” value [14] was 0.17 (0.05, 0.63) and the “Overall Survival HR (95% CI) univariate” value [14] was 0.27 (0.10, 0.70). For the same substance, the “Progression-free Survival HR (95% CI) multivariate” value [14] was 0.44 (0.22, 0.89), the “Progression-free Survival HR (95% CI) univariate” value [14] was 0.44 (0.23, 0.83) and the “Disease Control Rate PD” value [15] was 1 (33%). The “Disease Control Rate SD” value [15] was 2 (67%), the OS [16] was 8.7 months and the PFS [16] was 3.5 months. For the same substance, the “HR for OS” value [17] was 0.27, the “HR for PFS” value [17] was 0.44 and the “HR for PFS” value (training cohort, hENT1 rs9394992, multivariate adjusted for liver metastases and adjuvant history) was 0.44. For the same substance, the “Disease Control Rate PD” value [18] was 15 (83%), the “Disease Control Rate SD” value [18] was 3 (17%) and the OS [18] was 4.4 months. For the same substance, the “Overall Survival Median, months (95% CI)” value [18] was 4.4 (2.7, 7.2) months, the PFS [18] was 1.9 months and the “Progression-free Survival Median, months (95% CI)” value [18] was 1.9 (1.6, 2.7) months. For the same substance, the “Disease Control Rate PD” value [19] was 14 (64%), the “Disease Control Rate SD” value [19] was 8 (36%) and the “Overall Survival Median, months (95% CI)” value [20] was 8.7 (8.1, 15.6+) months. The “Progression-free Survival Median, months (95% CI)” value [20] was 3.4 (2.3, 4.4) months, the “Overall Survival HR (95% CI) multivariate” value [21] was 0.20 (0.08, 0.51) and the “Overall Survival HR (95% CI) univariate” value [21] was 0.21 (0.08, 0.51). The “Progression-free Survival HR (95% CI) multivariate” value [21] was 0.44 (0.23, 0.86), the “Progression-free Survival HR (95% CI) univariate” value [21] was 0.48 (0.25, 0.91) and the “Disease Control Rate PD” value [22] was 2 (33%). The “Disease Control Rate SD” value [22] was 4 (67%), the OS [23] was 8.7 months and the PFS [23] was 3.4 months. The “HR for OS” value [24] was 0.21, the “HR for PFS” value [24] was 0.48 and the “HR for OS” value [25] was 0.59. For the same substance, the “HR for PFS” value [25] was 0.68, the OS [26] was 6.3 months and the PFS [26] was 2.1 months. The OS [27] was 8.3 months, the PFS [27] was 3.4 months and the “Median OS” value [28] was 8.0 months. For the same substance, the “Median PFS” value [28] was 2.6 months.
